The source of these data is patent US20150126581A1, “MicroRNAs and Uses Thereof” (The University of Western Australia, priority 2012, published 2015).

Format in all cases: cell-based, human
For one data set, the system named is ERBB-2 3′-UTR. Put plainly: Dual luciferase reporter gene assay in HeLa cells, ERBB-2 3′-UTR reporter (positive control). The note with it: 24 h after transfection, compared to miR-NC. How it is done: (§1) HeLa cells were seeded in 12-well plates and co-transfected using Lipofectamine 2000 (Invitrogen) with 100 ng of either the negative control (empty), DOHH 3′-UTR or ERBB-2 3′-UTR reporter construct (Genecopoeia™) and 1-2 nM final concentration of pre-miR-331-3p, pre-miR-642-5p, a combination of pre-miR-331-3p and pre-miR-642-5p, or pre-miR-NC per well. Lysates were assayed for Firefly and Renilla luciferase activities 24 h after transfection using the Dual Luciferase Reporter Assay System (Promega) and a Fluostar OPTIMA microplate reader (BMG Labtech), and firefly luciferase activities normalised to Renilla luciferase activities to obtain relative reporter gene activity.
On the technique in general: Reporter assays use an easily measured gene product as a stand-in for the process of interest.

A short description of data set [1]: Dual luciferase reporter gene assay in HeLa cells, negative control (empty) reporter vector. The note with it: 24 h after transfection.
From the text: The dual luciferase (firefly and Renilla) reporter miRNA target clone for the DOHH 3′-UTR (catalogue no. HmiT020194-MT01) and the negative control vector (catalogue no. CmiT000001-MT01), both based on the PETZ-MT01 vector containing a SV40 promoter upstream of the hLuc gene, and a CMV reporter upstream of the hRLuc gene, were sourced from Genecopoeia™ (Rockville, USA). For miRNA target clones, the DOHH 3′-UTR was inserted downstream of the SV40 promoter/firefly luciferase reporter gene. Firefly luciferase was normalised to Renilla′ luciferase for expression and transfection efficiency.
as §1

The next data set relates to DOHH protein. The experiment in a line: Western blot of DOHH protein in transfected HeLa cells. The note with it: 30 nM precursor miRNA, 3 days post transfection, tubulin loading control. The protocol:
Having established that the DOHH 3′-UTR is a target for hsa-miR-331-3p and hsa-miR-642-5p in reporter gene assays, the effect of hsa-miR-331-3p and/or hsa-miR-642-5p over-expression on DOHH RNA and protein expression in HeLa cells was investigated. Briefly, HeLa cancer cells were seeded into 6 well plates or 10 cm^2 dishes and transfected using Lipofectamine 2000 (Invitrogen) and precursor miRNA molecules at a final concentration of 30 nM. Cells were harvested 24 hours post transfection for total RNA and 3 days post transfection for protein. The effect of hsa-miR-331-3p and hsa-miR-642-5p over-expression on DOHH RNA and protein production was analysed by RT-PCR and Western blot as described below.
Cytoplasmic protein extracts of the transfected HeLa cells were prepared as described previously (Giles et al. (2003) J Biol Chem 278(5), 2937-2946), resolved on NuPAGE 4-12% Bis Tris gels or NuPAGE 10% Bis Tris gels (Invitrogen) and transferred to PVDF membranes (Roche). Membranes were blocked in 5% skim milk/TBST and probed with anti-tubulin rat polyclonal antibody (1:1,000, Abcam ab6161 100) as a loading control and anti-DOHH (C 19) goat polyclonal antibody (1:1000, Santa Cruz Biotechnology sc-55157). […]
(In western blotting, separated proteins are transferred to a membrane and probed.)

For a further data set, the system named is eIF5A. The experiment in a line: Immunoblot of cytoplasmic eIF5A in transfected HeLa cells. The note with it: HeLa cells transiently over expressing miRNA, total anti-eIF5A antibody, data not shown. The source says:
Endogenous DOHH mRNA was repressed by both hsa-miR-331-3p and hsa-miR-642-5p in HeLa cells (FIG. 3A).

In another data set the test system is HeLa cells. Put plainly: xCELLigence cell proliferation assay. The note with it: 5000 transfected cells, monitored over 90 hour period, compared to miRNA negative control. How it is done:
The effect of transient miRNA over-expression in HeLa cells on cell proliferation was investigated using the xCELLigence™ System (Roche). Briefly, HeLa cells were grown and transfected with the miRNA negative control, hsa-miR-331-3p and/or hsa-miR-642-5p precursors as described above. Transfected HeLa cells were then trypsinised and counted using the Countess™ Automated cell counter and 5000 transiently transfected HeLa cells were plated in quadruplicate into 16 well E-plates. The cells monitored over a 90 hour period in real time according to the manufacturer's instructions.

The subject of data set [2] is DOHH 3′-UTR 182 nucleotide element. Put plainly: Luciferase RNA level from 3′UTR ELEMENT construct in DU145 cells. The note with it: co-transfection, data not shown. The source says: DU145 cells were also co-transfected with the “3′UTR ELEMENT” construct (i.e. the luciferase reporter carrying the DOHH 3′-UTR 182 nucleotide element) and hsa-miR-331-3p and/or hsa-miR-642-5p.

The test system of a further data set is DU145 cells. Put plainly: CellTiter 96 Aqueous One cell proliferation assay in DU145 cells with or without mimosine. The note with it: 5 days post transfection, compared with miR-NC, no mimosine. From the text:
The functional significance of hsa-miR-331-3p and/or hsa-miR-642-5p overexpression in DU145 cells was then investigated. DU145 cells were transfected with pre-miR-331-3p, pre-miR-642-5p, or pre-miR-NC as described above. […] Using the Bliss model (Bliss (1939) Ann Appl. Biol 26:585-615), synergy occurs when the observed fractional inhibition for the combination of hsa-miR-331-3p and/or hsa-miR-642-5p and mimosine (defined as Eobserved) exceeds the sum of the combined miRNA effect and the mimosine effect (defined as EBliss) (Table 3).

On to “hsa-miR-331-3p: human miR-331-3p, 5′-GCCCCUGGGCCUAUCCUAGAA-3′ (SEQ ID NO:4); transfected as Ambion Pre-miR precursor PM10881 (listed as RNA, chemistry not given here; listed as Homo sapiens)”, for which, in the data set with ERBB-2 3′-UTR, the “ERBB-2 3′-UTR reporter activity” value was “significant reduction in reporter activity”. Besides, the “Reporter activity of negative control reporter vector” value in data set [1] is “no significant change in reporter activity”. The “DOHH protein expression (immunoblot)” value with DOHH protein was “observed to be targeted”. The “Cytoplasmic levels of eIF5A” value with eIF5A is listed as “unchanged cytoplasmic levels of eIF5A”. Also, the “HeLa cell proliferation (xCELLigence)” value in the data set on HeLa cells was “inhibit the proliferation of HeLa cells to similar degrees”. Moreover, the “Luciferase RNA levels from “3′UTR ELEMENT” construct” value in data set [2] is “Reduced luciferase RNA levels”. In addition, in the data set with DU145 cells, the DU145 cell proliferation result is reported as “significantly reduced DU145 cell proliferation”.
For the substance “hsa-miR-642-5p: human miR-642-5p, 5′-GUCCCUCUCCAAAUGUGUCUUG-3′ (SEQ ID NO:5); transfected as Ambion Pre-miR precursor PM11477 (listed as RNA, chemistry not given here; listed as Homo sapiens)”, the “DOHH protein expression (immunoblot)” value with DOHH protein is “observed to be targeted”. Also, in the data set on eIF5A, the “Cytoplasmic levels of eIF5A” value was “unchanged cytoplasmic levels of eIF5A”. Besides, the “HeLa cell proliferation (xCELLigence)” value in the data set with HeLa cells is on record as “inhibit the proliferation of HeLa cells to similar degrees”. In addition, the “Luciferase RNA levels from “3′UTR ELEMENT” construct” value in data set [2] is “Reduced luciferase RNA levels”. Besides, the DU145 cell proliferation entry with DU145 cells is recorded as “significantly reduced DU145 cell proliferation”.
